Results published in US6599878B2, “Superoxygenating blood substitutes based on hemoglobin and dihydropyidine compositions” (priority 1992, dated 2003).
“And” between values parts separate entries of the source, which are not always exact repeats. Equal values may be shown once. Marks after values point to notes of the source that are not given here.

Columns and labels:
[1] = Regional blood flows by radioactive microspheres (Example I); type: in vivo, mongrel dogs; settings: dogs, hematocrit 50% of control
Protocol: Briefly, prior to injection, microspheres labeled with Sc^46, Sr^85, Sn^113 or Ce^141 were vortexed and sonicated. Approximately 30 microcuries (1×10^6 microspheres) were injected into the left atrium of a dog. Beginning with each microsphere injection, duplicate reference blood samples were collected at a constant rate (6 ml min^−1) for 3 minutes from the femoral PE 90 catheters. Radioactivity of the duplicate samples differed by less than 10%, indicating adequate mixing of the microspheres in the left ventricular output. To maintain isovolemic conditions during reference sampling, a 5% albumin solution was infused simultaneously.
After the final injection of microspheres, the heart was stopped by intravenous injection of potassium chloride. Skin and bone (rib) were sampled from a shaved area distal to the thoracotomy. Skeletal muscle samples were taken from the hindlimb, back, forelimb and head. The GI tract was excised from the esophageal sphincter to the anus. All mesentery and omentum were trimmed. The stomach was separated from the tract. These and all other organs were weighed. Multiple samples were taken from each organ and transferred to a tared counting tube.
The tissue and reference samples were weighed and analyzed for radioactivity with a gamma scintillation counter equipped with a multichannel analyzer (Packard Instrument, Downers Grove, Ill.). Isotope separation was accomplished by standard techniques of gamma spectroscopy. Values for organ blood flows (BForgan) in ml min^−1 were calculated from the equation BForgan=ABF×(MC÷AC)×organ weight (g), where ABF is the rate of arterial reference sampling (ml/minute), MC is the microsphere radioactivity (counts min^−1 g^−1) in the tissue samples, and AC is the total microsphere radioactivity (counts/minute) in the arterial reference samples. The fractional distribution of cardiac output to each organ was computed from BForgan÷ΣBForgan, where ΣBForgan is the sum of all organ flows. Skeletal muscle, skin and bone weights were calculated as 40%, 9% and 8% of body weight, respectively.

[2] = Properties of the hemoglobin product and colloid solutions; type: physicochemical
Protocol: (§2) Blood pH, PCO2, PO2 and Na^+, K^+ and Ca^++ concentrations were measured with a Nova Stat Profile 1 analyzer (Waltham, Mass.). Plasma colloid osmotic pressure (COP) was determined before and after hemodilution with a Wescor 4400 Colloid Osmometer (Logan, Utah). […] Hematocrit was determined volumetrically. Hemoglobin (gm %), methemoglobin (%) and percent oxygen saturation were measured with an Instrumentation Laboratories 482 CO-Oximeter (Lexington, Mass.). Hemoglobin oxygen content was measured with the co-oximeter and added to the dissolved oxygen (0.003×PO2) to give total blood oxygen content (vol %).

[3] = In vivo test of hemoglobin product for common adverse effects during hemodilution; settings: anesthetized dog, hemodilution to hematocrit 50% of baseline
Protocol: The hemoglobin product was also tested in vivo on dogs for common adverse effects of therapeutic products which are administered intravascularly. The hemodilution protocol used and the physiologic tests performed are standard in the art and were similar to that described in Rabiner et al., J. Exp. Med., 86, 455-463 (1967); Sunder-Plassmann et al., supra; and Crystal et al., Anesth. Analg., 67, 211-218 (1988) Briefly, the hemoglobin product was infused into a venous access of an anesthetized dog with simultaneous withdrawal of arterial blood on a one-to-one basis at about 25 ml/minute until hematocrit was 50% of baseline (about 20 vol %). Tests for pyrogenic effects, hypotensive effects, arrhythmia, inotropic effects, bradycardia, tachycardia, hypovolemia, dysoria, and coagulopathy were all negative.

cyclic GMP [4] = test: Plasma cyclic GMP and arterial pressure before and after hemodilution and SNP (Example II); type: in vivo, dog; settings: hemodilution alone, n = 5, mean ± sem
[5] = Whole body oxygenation (Example I); type: in vivo, mongrel dogs; settings: for CaO2: arterial oxygen content
Protocol: as §2
Whole body oxygen extraction ratio (O2 extr, %) was calculated from arteria-mixed venous oxygen content difference C(a−v)O2 divided by the arterial oxygen content (CaO2). Whole body oxygen consumption (WBVO2) in ml/minute was determined using the Fick equation, WBVO2=CO×C(a−v)O2 Oxygen delivery (DO2) in ml/minute was calculated from CaO2×CO.
Upon arrival in the laboratory, typically all dogs had hematocrits of 45 vol % or greater and filling pressures (LVEDP) of 5 mm Hg or less. Following cannulation all animals were hydrated with 5 mg % albumin to increase filling pressure (LVEDP) above 5 mm Hg and to bring hematocrit to near 40 vol %. Twelve dogs underwent isovolemic exchange of blood for 10 gm % hemoglobin to hematocrit 50% of baseline. […] The colloid pressure of 10 gm % hemoglobin and 8 gm % albumin (both about 40 Torr) is about twice that of dog plasma and after in vivo dilution would be expected to sustain plasma volumes at baseline values or greater.
(§3) Once MAP stabilized (≈5-10 min), hemodynamic measurements, blood gases and other samples were obtained.

[6] = Systemic hemodynamics in anesthetized hemodiluted dogs (Example I); type: in vivo, mongrel dogs
Protocol: Twenty-four conditioned, heartworm-free male mongrel dogs (20 to 30 kg) were anesthetized with sodium pentobarbital (30 mg/kg i.v.) followed by an i.v. maintenance dose of 4 mg/kg/hour. After intubation of the trachea with a cuffed endotracheal tube, the dog was mechanically ventilated (Siemens 900D Servoventilator) with 100% oxygen, tidal volumes of 10 to 12 ml/kg and respiration at a rate to achieve normocarbia. […] Sodium bicarbonate was not administered. The body temperature of the dog was maintained at 39 C. with water-circulated heating pads.
The dog was placed supine and a polyethylene catheter (PE 200) was inserted into the thoracic aorta via the left femoral artery for measurement of blood pressure. Two small-bore (PE 90) heparin-filled catheters of different lengths were placed in the abdominal aorta via the right femoral artery to collect reference blood samples containing radioactive microspheres for measurement of regional blood flow. Wide-bore (PE 240) catheters were placed in the right femoral vein and in the right carotid artery, for isovolemic exchange transfusion and for the administration of intravenous fluids and collection of arterial blood samples. A 5 french thermodilution catheter was advanced into the pulmonary artery via the right external jugular vein for measurement of cardiac output and right atrial pressure. A Foley catheter was inserted into the bladder for urine collection.
Under fluoroscopy, a 5 french volume-conductance catheter (Mansfield Webster) was inserted via the left carotid artery across the aortic valve to the apex of the left ventricle to measure instantaneous volume.
The animal was then placed on its right side and paralyzed with doxacurium (0.05 mg/kg) to perform a left thoracotomy in the fourth intercostal space. The exposed lung was retracted with gauze. Five cm H2O positive end-expiratory pressure was instituted to prevent atelectasis. A small incision was made in the pericardium near the left atrial appendage. The appendage was protracted and a PE 90 catheter, for microsphere injection, inserted into the ventricle via pressure verification and then pulled back into the atrium. A 3 french micromanometer-tipped pressure catheter (Millar) was then inserted via the appendage into the left ventricle for pressure recording. Both catheters were secured with a ligature around the appendage and distally taped to the animal. The exposed thoracic surface was covered with plastic film to prevent evaporation.
Continuous measurements of heart rate (HR), pulsatile aortic pressure, mean aortic pressure (MAP), left ventricular peak pressure (LVPP), rate-of-change of LVPP (dP/dt), LV end diastolic pressure (LVEDP), LV volume, and right atrial pressure (RAP) were recorded on an analog thermal array recorder (Gould Model TA4000) and stored on a computerized data acquisition system (Halcom, Inc.) Cardiac output (CO) was measured in triplicate using a Spectramed Hemoprol computer. Systemic vascular resistance (SVR) was calculated from (MAP−RAP)÷CO. Systemic vascular hindrance (SVH) was calculated from SVR÷η, where η is the apparent viscosity of blood in centipoise (cp). At high flow rates (shear rates≈200 s^−1) assumed in the aorta, η is 4.0 cp for hematocrit (Hct) of 40 vol % and 2.1 cp for Hct of 20 vol %. Stroke volume was derived from CO÷HR. LV stroke work (LVSW) was calculated from (systolic AoP−LVEDP)×SV×0.0136.

cyclic GMP [7] = test: Regional interstitial cGMP by microdialysis; type: in vivo, dog; settings: during hemodilution alone, n = 4
Excerpt: An in vivo method that is based on direct microdialysis of the organ tissue was used to examine the regional interstitial production of cGMP. The microdialysis technique uses a small dialysis fiber (250 μm diameter) that is inserted into the tissue and perfused to sample extracellular metabolites.

[8] = Blood gases, electrolytes, hemoglobin, colloid osmotic pressure and blood volume (Example I); type: in vivo, mongrel dogs; settings: for Plasma Hb: anesthetized dogs
Protocol: as §2
Total blood volume was computed from plasma volume (indicator dilution of iodinated I^125-albumin, Mallinckrodt Medical, Inc., St. Louis, Mo.) and whole body hematocrit.
Following cannulation all animals were hydrated with 5 mg % albumin to increase filling pressure (LVEDP) above 5 mm Hg and to bring hematocrit to near 40 vol %. Twelve dogs underwent isovolemic exchange of blood for 10 gm % hemoglobin to hematocrit 50% of baseline.
as §3

[9] = BAEE during oxyHb-HD pilot study; type: in vivo, dog; settings: n = 3
Excerpt: (§1) In another pilot study, we examined if infusion of a nitric oxide substrate (N-benzoyl-L-arginine ethyl ester, i.e. BAEE) would override the hypothesized NO scavenging by oxyHb and thereby mimic Ab-HD hemodynamics and cGMP production shown in Tables 8-11. While BAEE administration increased plasma cGMP levels and caused significant vasodilation as evidenced by the decreased mean arterial pressure, cardiac output was not increased (Table 12).

cyclic GMP [10] = test: BAEE during oxyHb-HD pilot study; type: in vivo, dog; settings: for cGMP: plasma
Excerpt: as §1

[11] = BAEE reversal of L-NAME effects in Ab-HD dogs; type: in vivo; settings: BAEE after L-NAME in AB-HD dogs
Excerpt: With BAEE, the original hemodynamics of Ab-HD alone were expected to be evident, i.e. increased cardiac output.

nitric oxide synthase = test: L-NAME during Ab-HD pilot study; settings: dog, in vivo
Protocol: Approximately 6 mg/kg L-NAME was administered i.v. bolus during Ab-HD.

[12] = anesthetized dogs, hemodilution to hematocrit 50% of baseline
[13] = BAEE 400 μg/kg/min during oxyHb-HD, n = 3

Molecule: HbHD: Purified canine hemoglobin (10 gm %) used for isovolemic hemodilution
- Organ blood flow, change from control: Bone [1]: No
- Organ blood flow, change from control: Brain [1]: Yes (+40%)
- Organ blood flow, change from control: Gastrointestinal [1]: No
- Organ blood flow, change from control: Liver [1]: No
- Organ blood flow, change from control: Lung [1]: Yes (−53%)
- Organ blood flow, change from control: Myocardium [1]: Yes (+80%)
- Organ blood flow, change from control: Pancreas [1]: No
- Organ blood flow, change from control: Renal [1]: No
- Organ blood flow, change from control: Skeletal muscle [1]: No
- Organ blood flow, change from control: Skin [1]: No
- Organ blood flow, change from control: Spleen [1]: Yes (−39%)
- Organ blood flow, change from control: Total (= Cardiac output) [1]: No
- Cyanide (blood, n = 6): 0.13 ± 0.03 mg/L
- Lactate (dog, in vivo): 2.2 ± 0.3 meq/L
- % carboxyhemoglobin [2]: <0.5%
- % methemoglobin [2]: <1%
- Ca^+ [2]: 1.2 mmol/L
- Colloid osmotic pressure [2]: 40 mm Hg
- Davenport diagram [2]: Normal
- Haldane effect [2]: Normal
- Hill plot [2]: Normal
- K [2]: 3.4 mmol/L
- Na [2]: 150 mmol/L
- Osmolality [2]: 310 mOsmol/kg
- Oxygen capacity [2]: 13.5 vol %
- Oxygen content [2]: 13.5 vol %
- PCO2 [2]: 15 mm Hg
- PO2 [2]: 200 mm Hg
- Total Hb concentration [2]: 10 gm %
- Viscosity [2]: ≈2.0 cp
- pH [2]: 6.9
- COP of colloid solution ([2]; 8% albumin, 10% hemoglobin, Wescor 4400 Colloid Osmometer): 40.8±1.0 mm Hg
- Bohr coefficient ([2]; pH 7.2-7.4): 0.54 (pH 7.2-7.4)
- P50 ([2]; pH 7.4): 24 mm Hg (pH 7.4)
- Tests for pyrogenic effects, hypotensive effects, arrhythmia, inotropic effects, bradycardia, tachycardia, hypovolemia, dysoria, and coagulopathy [3]: negative
- MAP (cyclic GMP [4]): 142 ± 6 mm Hg
- Plasma cGMP (cyclic GMP [4]; listed as oxyHb-HD): 17.22 ± 1.02*+ μg/ml and 17.22 ± 1.02 μg/ml
- C(a-v)O2 ([5]; anesthetized dogs): 6.1 ml/100 ml
- CvO2 ([5]; anesthetized dogs): 8.8 ml/100 ml
- CaO2 ([5]; anesthetized dogs): 14.9 ml/100 ml
- CaO2 ([5]; anesthetized dogs, listed as hemoglobin): 14.9±0.4 ml/100 ml
- DO2 ([5]; oxygen delivery = CaO2 x CO): 302 mL/min
- decrease in oxygen delivery ([5]; vs control): 30%
- reduction in arterial oxygen content ([5]; vs control): 24%
- WBVO2 ([5]; whole body oxygen consumption): 125 mL/min
- O2 extr ([5]; whole body oxygen extraction ratio): 45%
- LV Elastance [6, 12]: 4.91 mm Hg ml
- LV dP/dtmax [6, 12]: 1713 mm Hg/sec
- LVPP [6, 12]: 154 mm Hg
- LVSW [6, 12]: 29.2 g m/beat
- MAP [6, 12]: 136 mm Hg
- heart rate [6, 12]: 153 beats/min
- mean aortic, right atrial and LV end-diastolic (systemic) pressures vs control ([6]; dog, in vivo): not changed
- systemic vascular resistance vs control ([6]; dog, in vivo): not changed
- effect on cardiac output and stroke volume ([6]; vs control): did not change
- increase in systemic vascular hindrance ([6]; vs control): ~100%
- Cyclic GMP levels in regional interstitial microdialysate, MU (cyclic GMP [7]; MU): 17.98* μg/ml
- Cyclic GMP levels in regional interstitial microdialysate, BO (cyclic GMP [7]; bone): 18.64* μg/ml
- Cyclic GMP levels in regional interstitial microdialysate, BR (cyclic GMP [7]; brain): 19.94* μg/ml
- Cyclic GMP levels in regional interstitial microdialysate, GI (cyclic GMP [7]; gastrointestinal tract): 12.68* μg/ml
- Cyclic GMP levels in regional interstitial microdialysate, HE (cyclic GMP [7]; heart): 14.44* μg/ml
- Cyclic GMP levels in regional interstitial microdialysate, LI (cyclic GMP [7]; liver): 20.34* μg/ml
- Cyclic GMP levels in regional interstitial microdialysate, LU (cyclic GMP [7]; lung): 18.74* μg/ml
- Cyclic GMP levels in regional interstitial microdialysate, SP (cyclic GMP [7]; spleen): 16.40* μg/ml
- Plasma Hb [8]: 4.6 g/100 ml
- Plasma Hb ([8]; listed as hemoglobin): 4.6 g/100 ml
- plasma hemoglobin as share of total whole blood hemoglobin concentration ([8]; dog, in vivo): approximately 40%
- hemoglobin excreted in urine, share of the approximately 100 grams infused ([8]; hemoglobinuria): less than 1%
- CO ([9]; oxyHb-HD alone): 2880 ± 245 mL/min
- MAP (cyclic GMP [10]; oxyHb-HD alone, n = 3): 146 ± 5 mm Hg
- cGMP (cyclic GMP [10]; oxyHb-HD alone, n = 3, mean ± sem): 17.80 ± 0.95 µg/mL

Molecule: CCOC(=O)[C@H](CCCNC(=N)N)NC(=O)c1ccccc1 [BAEE, N-benzoyl-L-arginine ethyl ester, reference compound]
- reversal of cardiac output to the high levels of Ab-HD alone [11]: not reversed
- CO ([9]; BAEE 400 μg/kg/min during oxyHb-HD): 2376 ± 233 mL/min
- MAP (cyclic GMP [10]; [13]): 108 ± 8*+ mm Hg
- cGMP (cyclic GMP [10]; [13]): 24.44 ± 1.05*+ μg/ml

Molecule: COC(=O)[C@@H](N)CCCNC(=N)N[N+](=O)[O-] [L-NAME, L-nitro arginine methyl ester]
- CO (nitric oxide synthase): 2413 ± 1721+ ml/min
- MAP (nitric oxide synthase): 152 ± 8*+ mm Hg
- cGMP (nitric oxide synthase): 17.38 ± 0.98*+ μg/ml
